Measured values as given in patent US11274095B2, “Modulators of methyl modifying enzymes, compositions and uses thereof” (Constellation Pharmaceuticals, Inc., priority 2018, dated 2022).
Where two headings read alike, the source gives them in different places.

What was measured:
PRC2 containing wt EZH2 [1] = molecular target: T1, PRC2 containing wt EZH2 (Homo sapiens (Human), UniProt Q15910); assay: EZH2 residence time assay (100-fold dilution of enzyme-inhibitor complex); type: biochemical
Experimental: EZH2 residence time assay: Compound residence times were assessed by monitoring the recovery of enzyme activity following a 100-fold dilution of pre-formed enzyme-inhibitor complex (dilution reaction), and comparing it to the activity of an undiluted control with the same final concentrations of all reagents (control reaction). Enzyme activity was measured by incorporation of ^3H-SAM into a biotinylated H3 peptide. For the dilution reaction, 20 nM PRC2 containing wt EZH2 (pentameric complex prepared in-house) was pre-incubated with 1 μM activating peptide (H2N-RKQLATKAAR(Kme3)SAPATGGVKKP-amide) and compound at 600 times its Ki for 2 h in 40 μL of buffer (50 mM Tris pH 8.5, 4 mM DTT, 1 mM MgCl2, 0.07 mM Brij-35, and 0.1 mg/mL BSA), then diluted 100-fold and the reaction initiated by transferring 1.4 μL to a 138.6 μL volume of buffer containing 1 μM activating peptide, 5.05 μM substrate peptide (H2N-[…]-NTPEGbiot), 1.01 μM SAM, and 1.01 μM ^3H-SAM. […] Reactions were quenched at various time points spanning up to 10 hours, by transferring 8μL aliquots from the reaction vessel to a plate containing 8μL per well of STOP solution (50 mM Tris pH 8.5, 200 mM EDTA, 2 mM SAH). After the last time point, 12 μL of the quenched solutions were transferred to a streptavidin coated FlashPlate (PerkinElmer) containing 40 μL per well of STOP solution, incubated 1-8 h, washed, and read in a TopCount plate reader (PerkinElmer).
A custom script was used to fit control reaction progress data to a straight line and dilution reaction progress data:
[formula] Where y is the product formed, t is the reaction time, vi is the initial velocity, vs is the steady state velocity, and kobs is the rate constant for the transition from the initial velocity phase of the curve to the steady state velocity phase of the curve. In fitting the dilution reaction progress data, vs was constrained to the slope of the line fitted to the control reaction progress data. The fitted value of kobs was then transformed into residence time:
[formula] Where τ is residence time, Ki is the inhibition constant, [EI] is the calculated equilibrium concentration of enzyme-inhibitor complex, [E] is the calculated equilibrium concentration of free enzyme, and [I] is the calculated equilibrium concentration of free inhibitor.

PRC2 containing wt EZH2 [2] = molecular target: T1, PRC2 containing wt EZH2; assay: EZH2 biochemical assay (IC50), 3H-SAM incorporation into biotinylated H3 peptide; settings: 30 pM PRC2 with wt EZH2, 3-5 h pre-incubation
Experimental: EZH2 biochemical assay (IC50): Compound potencies were assessed through incorporation of ^3H-SAM into a biotinylated H3 peptide. Specifically, 30 pM PRC2 containing wt EZH2 (pentameric complex prepared in-house) was pre-incubated with 450 nM SAM, 450 nM ^3H-SAM, 2 μM H3K27me3 activating peptide (H2N-RKQLATKAAR(Kme3)SAPATGGVKKP-amide) and compounds (as 10 point duplicate dose response titrations in DMSO, final assay 0.8% DMSO (v/v)) for 3-5 h in 50 mM Tris (pH 8.5), 1 mM DTT, 0.07 mM Brij-35, 0.1% BSA, and 0.8% DMSO in a total volume of 12.5 μl. Reaction was initiated with biotinylated H3 substrate peptide (H2N-RKQLATKAAR(Kmel)SAPATGGVKKP-NTPEGBiot) as a 2 μM stock in 12.5 μl of buffer and allowed to react at room temperature for 18-22 h. Quenching was accomplished by addition of 20 μl of STOP solution (50 mM Tris (pH 8.5), 200 mM EDTA, 2 mM SAH). 35 μl of the quenched solution was transferred to streptavidin coated FlashPlates (PerkinElmer), incubated 1-2 h, washed, and read in a TopCount Reader (PerkinElmer). IC50s were calculated in Genedata Screener using non-linear least square four parameter fits, where the four parameters were IC50, Hill slope, pre-transitional baseline (0% INH), and post-transitional baseline (100% INH).

Karpas-422 cell lines = assay: Karpas-422 viability assay (Cell Titer-Glo, Day 8); type: cell-based; settings: Homo sapiens, KARPAS-422, 192 h, Cell Titer-Glo on Day 8
Experimental: Karpas-422 cell lines were obtained from DSMZ (Braunschweig, Germany) and were grown in RPMI-1640 media. All media contained 10% fetal bovine serum (FBS) and 1% penicillin/streptomycin (Invitrogen). 20K cells per well were plated onto 96 well compound coated plates. Cells were split and seeded at original plating density (based on the DMSO well counts) every 4 days into plates containing fresh EZH2 inhibitors. Relative cell numbers were assessed by Cell Titer-Glo luminescent cell viability assay (Promega) on Day 8. GraphPad Prism 5 was used for curve fitting and GI50 values were reported.

[3] = recovery of enzyme activity after 100-fold dilution, read-out: EZH2 residence time (converted)

T1 sequence (Q15910 whole entry): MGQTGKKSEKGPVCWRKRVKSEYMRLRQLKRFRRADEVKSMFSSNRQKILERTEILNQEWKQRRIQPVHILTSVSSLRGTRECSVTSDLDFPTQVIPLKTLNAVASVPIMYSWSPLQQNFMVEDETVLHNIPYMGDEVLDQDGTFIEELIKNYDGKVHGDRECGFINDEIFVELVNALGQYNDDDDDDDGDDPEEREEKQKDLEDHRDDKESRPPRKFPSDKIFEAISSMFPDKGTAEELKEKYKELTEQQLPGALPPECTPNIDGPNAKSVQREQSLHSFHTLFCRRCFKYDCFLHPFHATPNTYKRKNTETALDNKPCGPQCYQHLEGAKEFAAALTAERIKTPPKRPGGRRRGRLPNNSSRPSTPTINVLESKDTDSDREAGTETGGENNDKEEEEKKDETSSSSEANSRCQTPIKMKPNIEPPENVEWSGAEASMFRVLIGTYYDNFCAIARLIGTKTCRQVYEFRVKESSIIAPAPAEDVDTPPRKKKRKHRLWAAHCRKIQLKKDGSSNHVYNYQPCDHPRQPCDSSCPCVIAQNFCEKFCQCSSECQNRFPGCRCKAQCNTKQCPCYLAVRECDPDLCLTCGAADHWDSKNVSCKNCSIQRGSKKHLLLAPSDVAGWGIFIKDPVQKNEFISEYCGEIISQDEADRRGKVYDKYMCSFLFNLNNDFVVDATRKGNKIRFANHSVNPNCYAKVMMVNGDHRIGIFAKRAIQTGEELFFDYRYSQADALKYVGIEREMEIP
T1 sequence (O75530 whole entry partner): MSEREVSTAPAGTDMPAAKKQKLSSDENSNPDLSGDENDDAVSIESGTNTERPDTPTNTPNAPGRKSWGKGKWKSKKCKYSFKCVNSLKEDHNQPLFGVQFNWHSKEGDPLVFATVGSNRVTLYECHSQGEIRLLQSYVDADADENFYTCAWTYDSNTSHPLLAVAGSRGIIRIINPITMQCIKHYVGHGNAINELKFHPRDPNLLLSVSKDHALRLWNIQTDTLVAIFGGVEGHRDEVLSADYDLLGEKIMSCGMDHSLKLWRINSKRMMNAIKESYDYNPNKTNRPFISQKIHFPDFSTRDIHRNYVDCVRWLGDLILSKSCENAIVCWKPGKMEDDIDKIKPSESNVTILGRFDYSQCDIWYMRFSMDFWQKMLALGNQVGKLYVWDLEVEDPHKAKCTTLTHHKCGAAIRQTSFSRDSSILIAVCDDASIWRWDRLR
T1 sequence (Q15022 whole entry partner): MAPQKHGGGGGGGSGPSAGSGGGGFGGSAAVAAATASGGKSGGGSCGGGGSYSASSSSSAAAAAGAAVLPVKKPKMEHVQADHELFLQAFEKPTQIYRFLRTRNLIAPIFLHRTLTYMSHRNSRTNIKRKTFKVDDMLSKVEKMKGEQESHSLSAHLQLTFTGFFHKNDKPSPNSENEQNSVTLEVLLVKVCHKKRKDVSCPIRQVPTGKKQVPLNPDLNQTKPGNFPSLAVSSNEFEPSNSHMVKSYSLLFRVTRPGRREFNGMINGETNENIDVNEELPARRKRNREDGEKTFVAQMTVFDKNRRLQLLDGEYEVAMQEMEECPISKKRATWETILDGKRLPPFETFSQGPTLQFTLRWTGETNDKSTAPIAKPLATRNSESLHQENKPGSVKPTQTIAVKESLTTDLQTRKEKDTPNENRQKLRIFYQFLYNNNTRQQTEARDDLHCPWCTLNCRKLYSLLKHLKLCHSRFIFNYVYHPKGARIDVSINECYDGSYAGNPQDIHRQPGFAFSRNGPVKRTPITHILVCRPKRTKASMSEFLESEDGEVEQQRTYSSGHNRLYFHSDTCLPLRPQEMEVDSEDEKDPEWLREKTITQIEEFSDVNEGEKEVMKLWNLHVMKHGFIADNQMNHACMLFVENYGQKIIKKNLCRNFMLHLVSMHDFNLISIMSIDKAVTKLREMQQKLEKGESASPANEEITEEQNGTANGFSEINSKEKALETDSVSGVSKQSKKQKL
T1 sequence (Q09028 whole entry partner): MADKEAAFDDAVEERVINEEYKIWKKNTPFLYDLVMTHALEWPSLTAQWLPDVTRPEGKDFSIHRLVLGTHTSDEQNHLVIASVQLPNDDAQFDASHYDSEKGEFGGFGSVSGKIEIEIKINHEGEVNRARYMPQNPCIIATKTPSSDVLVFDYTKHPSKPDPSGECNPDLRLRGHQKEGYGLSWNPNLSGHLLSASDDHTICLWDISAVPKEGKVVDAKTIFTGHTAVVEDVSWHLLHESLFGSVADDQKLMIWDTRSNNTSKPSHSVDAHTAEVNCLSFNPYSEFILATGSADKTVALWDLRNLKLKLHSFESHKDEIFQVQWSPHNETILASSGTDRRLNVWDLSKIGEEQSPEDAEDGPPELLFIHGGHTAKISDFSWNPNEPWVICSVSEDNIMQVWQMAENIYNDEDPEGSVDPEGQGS
T1 sequence (Q6ZN18 whole entry partner): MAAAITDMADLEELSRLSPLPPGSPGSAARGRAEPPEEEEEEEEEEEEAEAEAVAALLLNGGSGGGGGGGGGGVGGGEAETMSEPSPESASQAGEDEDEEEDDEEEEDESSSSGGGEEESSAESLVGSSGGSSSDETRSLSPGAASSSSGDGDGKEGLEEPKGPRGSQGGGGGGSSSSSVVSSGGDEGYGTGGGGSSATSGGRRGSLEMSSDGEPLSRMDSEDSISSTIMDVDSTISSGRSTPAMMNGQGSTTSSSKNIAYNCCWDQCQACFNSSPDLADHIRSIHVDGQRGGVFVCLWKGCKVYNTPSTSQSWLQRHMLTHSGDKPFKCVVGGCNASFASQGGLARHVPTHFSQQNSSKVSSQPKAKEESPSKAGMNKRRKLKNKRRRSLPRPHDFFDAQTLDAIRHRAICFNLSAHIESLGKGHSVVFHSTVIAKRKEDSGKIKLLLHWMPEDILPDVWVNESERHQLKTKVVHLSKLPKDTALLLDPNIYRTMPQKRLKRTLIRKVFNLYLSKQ

Row | IC50 (PRC2 containing wt EZH2 [2]) | GI50 (Karpas-422 cell lines) | residence time (PRC2 containing wt EZH2 [1]; [3]) | SMILES | residence time (PRC2 containing wt EZH2 [1]; read-out: EZH2 residence time)
1 | 0.039 nM | 5 nM | > 6000 min | Cc1cc(Cl)c(CNC(=O)c2cc(Cl)c3c(c2C)OC(C)(C2CCC(N4CC(OC5CC5)C4)CC2)O3)c(=O)[nH]1 (single isomer, unassigned) [Example 8, 7-chloro-N-((4-chloro-6-methyl-2-oxo-1,2-dihydropyridin-3-yl)methyl)-2-(4-(3-cyclopropoxyazetidin-1-yl)cyclohexyl)-2,4-dimethylbenzo[d][1,3]dioxole-5-carboxamide] | –
2 | 0.054 nM | 3.7 nM | > 6000 min | CSc1cc(C)[nH]c(=O)c1CNC(=O)c1cc(Cl)c2c(c1C)OC(C)(C1CCC(N3CC(OC4CC4)C3)CC1)O2 (single isomer, unassigned) [Example 9] | –
3 | 0.202 nM | 20 nM | 2220 min | CSc1nc(C)[nH]c(=O)c1CNC(=O)c1cc(Cl)c2c(c1C)OC(C)(C1CCC(N3CC(OC(F)F)C3)CC1)O2 (single isomer, unassigned) [Example 10] | –
4 | 0.092 nM | 4.4 nM | > 6000 min | CSc1cc(C)[nH]c(=O)c1CNC(=O)c1cc(Cl)c2c(c1C)OC(C)(C1CCC(N3CC(F)C3)CC1)O2 (single isomer, unassigned) [Example 12] | –
5 | 0.084 nM | 9.7 nM | 2880 min | Cc1cc(Cl)c(CNC(=O)c2cc(Cl)c3c(c2C)OC(C)(C2CCC(N4CC(OC(F)F)C4)CC2)O3)c(=O)[nH]1 (single isomer, unassigned) [Example 13] | –
6 | 0.043 nM | 3.5 nM | > 6000 min | COC1CN(C2CCC(C3(C)Oc4c(Cl)cc(C(=O)NCc5c(SC)cc(C)[nH]c5=O)c(C)c4O3)CC2)C1 (single isomer, unassigned) [Example 17, 7-chloro-2-(4-(3-methoxyazetidin-1-yl)cyclohexyl)-2,4-dimethyl-N-((6-methyl-4-(methylthio)-2-oxo-1,2-dihydropyridin-3-yl)methyl)benzo[d][1,3]dioxole-5-carboxamide] | –

Row | SMILES | IC50 (PRC2 containing wt EZH2 [2]) | GI50 (Karpas-422 cell lines) | residence time (PRC2 containing wt EZH2 [1]; [3]) | residence time (PRC2 containing wt EZH2 [1]; read-out: EZH2 residence time)
7 | CSc1cc(C)[nH]c(=O)c1CNC(=O)c1cc(Cl)c2c(c1C)OC(C)(C1CCC(N3CC(OC(F)F)C3)CC1)O2 (single isomer, unassigned) [Example 1, 7-chloro-2-(4-(3-(difluoromethoxy)azetidin-1-yl)cyclohexyl)-2,4-dimethyl-N-((6-methyl-4-(methylthio)-2-oxo-1,2-dihydropyridin-3-yl)methyl)benzo[d][1,3]dioxole-5-carboxamide] | 0.091 nM | 3.9 nM | – | > 6000 min
